Tests used:
[1] = tested on: efflux pump of PA-038blaNDM; assay: Inhibition of efflux pumps: EtBr accumulation/efflux; format: cell-based, Pseudomonas aeruginosa; conditions: 8 mg/L of compound
Description: The accumulation of EtBr inside the NDM-producing (PA-038blaNDM) P. aeruginosa clinical isolates was monitored as previously described. Briefly, the P. aeruginosa strain was grown in 5 mL of LB medium until it reached the mid-log phase, and the bacteria were centrifuged at 3500 rpm for 15 min. The resulting pellet was washed twice with an equal volume of PBS. The concentration of the bacterial suspension was adjusted (OD600 = 0.3) and added to each well of a flat-bottomed 96-well black plate ([…]). After the addition of glucose (4 µL) to the cellular suspension at a final concentration of 0.4% (w/v), 4 µL of the title compound or positive control CCCP was added to the plate. Finally, EtBr (10 µL) was also added to each well at a final concentration of 1 µg/mL, and the plate was incubated at 37 °C for 60 min, during which time fluorescence emission from EtBr was recorded (λex 480 nm/λem 630 nm) with a 2-min interval, using a Cytation 5 imaging multi-mode reader (BioTek Instruments, Inc., Winooski, VT, USA).

KPC-2 = target: T1, KPC-2 (Klebsiella pneumoniae, UniProt Q9F663); assay: β-lactamase inhibition, nitrocefin hydrolysis; format: biochemical; conditions: nitrocefin substrate; read-out: β-Lactamases, IC50 KPC-2
T1 construct: purchased LifeSpan Biosciences, Inc. LS-G26598
T1 sequence (Q9F663 25-293, looked up): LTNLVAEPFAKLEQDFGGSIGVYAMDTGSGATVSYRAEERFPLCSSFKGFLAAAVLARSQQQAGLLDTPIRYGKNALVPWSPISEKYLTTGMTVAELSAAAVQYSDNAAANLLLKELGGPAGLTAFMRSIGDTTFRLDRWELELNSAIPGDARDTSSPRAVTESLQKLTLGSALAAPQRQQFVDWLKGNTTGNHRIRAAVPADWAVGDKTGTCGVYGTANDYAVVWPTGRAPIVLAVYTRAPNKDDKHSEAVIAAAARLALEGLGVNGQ
Excerpt: (§1) Recombinant AmpC from Escherichia coli was produced according to a previously reported protocol. KPC-2 and NDM-1 […] were purchased from LifeSpan Biosciences, Inc. (Lynnwood, WA, USA) (LS-G26598) and RayBiotech, Inc. (Peachtree Corners, GA, USA) (230-00554), respectively. Genes encoding OXA-48 (residues 23–265) and VIM-2 (residues 27–266) were custom-synthesized (Bioneer Inc., Seoul, Republic of Korea) and expressed as previously described. The β-lactamase inhibitory activity of the title compounds was then determined according to the previously reported methods. Briefly, equal volumes (100 μL) of the title compounds (70–0.1 μM in PBS) and diluted enzyme stock were mixed (final concentration 2% of DMSO in 200 μL) in 96-well plates, which were then incubated at 37 °C for 20 min. The incubated mixture was added to each well containing substrates (nitrocefin for AmpC, KPC-2, OXA-48, and VIM-2; and imipenem for NDM-1) of final concentrations of 70 μM for nitrocefin and 100 μM for imipenem. Substrate hydrolysis was monitored at 486 nm (nitrocefin) or 300 nm (imipenem) for 15 min, using a Cytation 5 imaging multimode reader (BioTek Instruments Inc., Winooski, VT, USA). At the plateau level of hydrolysis, the corresponding rates of hydrolysis were compared to those obtained without inhibitors (100%) to determine the percentage of enzyme inhibition at each concentration of the title compounds. The IC50 values of the compounds were derived from sigmoidal dose–response curves, using GraphPad Prism 5 (GraphPad Software, Boston, MA, USA).

VIM-2 = target: T2, VIM-2 (Escherichia coli, UniProt Q5U7L7); assay: β-lactamase inhibition, nitrocefin hydrolysis; format: biochemical; conditions: nitrocefin substrate; read-out: β-Lactamases, IC50 VIM-2
T2 construct: Genes encoding OXA-48 (residues 23–265) and VIM-2 (residues 27–266) were custom-synthesized; made in house
Excerpt: as §1

OXA-48 = target: T3, OXA-48 (Klebsiella pneumoniae, UniProt Q6XEC0); assay: β-lactamase inhibition, nitrocefin hydrolysis; format: biochemical; conditions: nitrocefin substrate; read-out: β-Lactamases, IC50 OXA-48
T3 construct: Genes encoding OXA-48 (residues 23–265) and VIM-2 (residues 27–266) were custom-synthesized; made in house
T3 sequence (Q6XEC0 23-265 limits assumed): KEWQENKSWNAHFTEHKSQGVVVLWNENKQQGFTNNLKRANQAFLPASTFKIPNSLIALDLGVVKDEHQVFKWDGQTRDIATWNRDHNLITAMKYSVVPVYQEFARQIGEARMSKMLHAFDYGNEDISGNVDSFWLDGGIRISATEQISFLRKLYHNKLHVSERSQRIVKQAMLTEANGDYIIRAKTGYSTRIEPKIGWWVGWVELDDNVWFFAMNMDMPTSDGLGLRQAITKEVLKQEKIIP
Excerpt: as §1

AmpC = target: T4, AmpC (Escherichia coli, UniProt P00811); assay: β-lactamase inhibition, nitrocefin hydrolysis; format: biochemical
T4 construct: made in house
T4 sequence (P00811 20-377): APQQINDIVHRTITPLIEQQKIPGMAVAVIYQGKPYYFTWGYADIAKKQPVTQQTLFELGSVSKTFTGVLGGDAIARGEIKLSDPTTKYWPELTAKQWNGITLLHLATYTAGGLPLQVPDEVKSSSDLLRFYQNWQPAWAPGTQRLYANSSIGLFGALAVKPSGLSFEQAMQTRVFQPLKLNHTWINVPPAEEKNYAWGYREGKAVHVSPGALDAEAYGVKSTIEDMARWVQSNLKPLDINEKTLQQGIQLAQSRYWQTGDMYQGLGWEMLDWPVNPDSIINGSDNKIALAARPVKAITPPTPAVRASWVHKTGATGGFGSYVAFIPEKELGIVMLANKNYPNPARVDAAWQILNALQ
Excerpt: as §1

[2] = tested on: MBL-producing P. aeruginosa clinical isolates; assay: Broth microdilution checkerboard synergy assay (MIC of ATM in combination); format: cell-based, Pseudomonas aeruginosa
ESBLs = tested on: ESBLs; parameters: method as in PMID 32843653; conditions: cited from earlier work
NDM-1 = target: T5, NDM-1 (Klebsiella pneumoniae, UniProt C7C422); assay: β-lactamase inhibition, imipenem hydrolysis; format: biochemical; conditions: imipenem substrate; read-out: β-Lactamases, IC50 NDM-1
T5 construct: purchased RayBiotech, Inc. 230-00554
T5 sequence (C7C422 29-270, looked up, species assumed): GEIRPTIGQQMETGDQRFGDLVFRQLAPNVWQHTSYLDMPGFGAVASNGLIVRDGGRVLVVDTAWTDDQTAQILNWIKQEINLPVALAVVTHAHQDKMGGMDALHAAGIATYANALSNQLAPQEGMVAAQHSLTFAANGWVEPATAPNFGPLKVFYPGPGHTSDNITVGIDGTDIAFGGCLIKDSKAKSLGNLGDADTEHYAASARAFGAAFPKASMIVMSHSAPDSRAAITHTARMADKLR
Excerpt: as §1

[3] = tested on: human liver (HepG2) cell line; assay: HepG2 cell viability; format: cell-based; conditions: up to 64 mg/L, 24 h exposure
Description: Concentration of 27 (mg/L)
Figure S1. Cell viability of human hepatoma HepG2 cells presented as percentage of
control after 24 h exposure to different concentrations of 27. The data represent the
average values of three experiments (± SD).

N#CC(C#N)=NNc1cccc(Cl)c1 [CCCP, carbonyl cyanide 3-chlorophenylhydrazone]
EtBr fluorescence (accumulation) [1]: became stronger

O=c1c(O)c(-c2ccc(F)c(F)c2)oc2cc(O)cc(O)c12 [Compound 1, 3′,4′-difluoroquercetin]
IC50 (KPC-2): > 50 µM
IC50 (VIM-2): > 100 µM
IC50 (OXA-48): > 100 µM
IC50 (AmpC): > 50 µM
concentration at which ATM-potentiating activity was observed ([2]; four representative MBL-producing P. aeruginosa strains (Table 2)): 8 to 16 mg/L
EtBr fluorescence (accumulation) [1]: as potent as CCCP
inhibition of ESBLs (ESBLs): not to inhibit ESBLs
IC50 (NDM-1): > 50 µM

CC(C)(C)CCOc1c(-c2ccc(F)c(F)c2)oc2cc(O)cc(O)c2c1=O [Compound 23]
IC50 (KPC-2): 17.3 µM
IC50 (VIM-2): 11.9 µM
IC50 (OXA-48): 14.8 µM
IC50 (AmpC): 18.9 µM
EtBr fluorescence (accumulation) [1]: significant increase in EtBr accumulation
IC50 (NDM-1): 11.4 µM

O=c1c(OCCC2CCCC2)c(-c2ccc(F)c(F)c2)oc2cc(O)cc(O)c12 [Compound 26]
IC50 (KPC-2): 11.5 µM
IC50 (VIM-2): 9 µM
IC50 (OXA-48): 8 µM
IC50 (AmpC): 21 µM
EtBr fluorescence (accumulation) [1]: significant increase in EtBr accumulation
IC50 (NDM-1): 15.9 µM

O=c1c(OCCC2CCCCC2)c(-c2ccc(F)c(F)c2)oc2cc(O)cc(O)c12 [Compound 27]
cytotoxic effects [3]: no cytotoxic effects
IC50 (KPC-2): 11.3 µM
IC50 (VIM-2): 4.4 µM
IC50 (OXA-48): 6.3 µM
IC50 (AmpC): 15.3 µM
strains with more than a four-fold MIC reduction (synergistic effect) of ATM ([2]; 21 MBL-producing P. aeruginosa clinical strains, combination with ATM): 19 out of 21
MIC ([2]; Pseudomonas aeruginosa, MBL-producing P. aeruginosa clinical isolates, no activity up to this concentration, read-out: antimicrobial activity (MIC) of the compound alone): > 512 µg/mL
EtBr fluorescence (accumulation) [1]: significant increase in EtBr accumulation
IC50 (NDM-1): 10.1 µM
